Experimental data published in US10906940B2, “Antimicrobial peptides, pharmaceutical compositions, and methods of use thereof” (priority 2014, dated 2021).
In brackets after ≈: the same amount, converted by molar mass. Like-named read-outs stand apart in the source and are kept apart here.

Tests used:
S. aureus 10 = experiment: microbe, parasite or virus in culture; type: cell-based, Staphylococcus aureus
Source text: (§1) The same MIC assay as in Example 6 was used to determine the antimicrobial susceptibility of Compound A, L-form (FIG. 15), and several variants. One variant was Compound A, D-form, with D-Lysine at position 7. Compound B is a variant in the fatty acid chain, with a fatty acid chain composition of C15H29O, and having D-Lys at position 7. Compound C is a variant in the fatty acid chain with a fatty acid chain composition of C11H21O, and having D-Lys at position 7. Variant D is a sequence variant with Phe at position 6 of the cyclic peptide, and having D-Lys at position 7. All variants were chemically synthesized.

S. aureus 12 = experiment: microbe, parasite or virus in culture; type: cell-based, Staphylococcus aureus
Source text: as §1

S. aureus 14 = experiment: microbe, parasite or virus in culture; type: cell-based, Staphylococcus aureus
Source text: as §1

S. aureus 19 = experiment: microbe, parasite or virus in culture; type: cell-based, Staphylococcus aureus
Source text: as §1

S. aureus 2 = experiment: microbe, parasite or virus in culture; type: cell-based, Staphylococcus aureus
Source text: as §1

S. aureus 4 = experiment: microbe, parasite or virus in culture; type: cell-based, Staphylococcus aureus
Source text: as §1

S. aureus 6 = experiment: microbe, parasite or virus in culture; type: cell-based, Staphylococcus aureus
Source text: as §1

S. aureus 8 = experiment: microbe, parasite or virus in culture; type: cell-based, Staphylococcus aureus
Source text: as §1

E. faecium ATCC 2320 = experiment: microbe, parasite or virus in culture; type: cell-based; details: Enterococcus faecium, ATCC2320
Source text: as §1

E. faecium ATCC 700221 = experiment: microbe, parasite or virus in culture; type: cell-based; details: Enterococcus faecium, ATCC700221
Source text: as §1

E. faecium BAA-2318 = experiment: microbe, parasite or virus in culture; type: cell-based; details: Enterococcus faecium, BAA2318
Source text: as §1

E. faecalis ATCC 51575 = experiment: microbe, parasite or virus in culture; type: cell-based, Enterococcus faecalis; details: Enterococcus faecalis, ATCC51575
Source text: as §1

E. faecalis BAA-2365 = experiment: microbe, parasite or virus in culture; type: cell-based, Enterococcus faecalis; details: Enterococcus faecalis, BAA2365
Source text: as §1

E. faecalis ATCC 29212 = experiment: microbe, parasite or virus in culture; details: Enterococcus faecalis, ATCC29212
[1] = test system: Listeria monocytogenes R2-583; experiment: microbe, parasite or virus in culture; details: R2583
S. aureus ATCC25923 = experiment: microbe, parasite or virus in culture; details: Staphylococcus aureus
S. aureus ATCC 29213 = experiment: microbe, parasite or virus in culture; details: Staphylococcus aureus, ATCC29213
[2] = test system: Enterobacter cloacae SBJ-9395; type: cell-based
Source text: as §1

[3] = test system: Serratia marcescens SAMN 04276914; type: cell-based; details: Serratia marcescens SAMN 04276914
Source text: as §1

[4] = test system: Serratia marcescens SAMN 04276915; type: cell-based; details: Serratia marcescens SAMN 04276915
Source text: as §1

[5] = test system: Serratia marcescens SAMN04022954; type: cell-based; details: Serratia marcescens SAMN04022954
Source text: as §1

[6] = test system: Serratia marcescens SBJ-8283; type: cell-based
Source text: as §1

[7] = test system: Serratia marcescens SBJ-9047; type: cell-based
Source text: as §1

[8] = test system: Salmonella enterica serovar Montevideo strain 29N; experiment: Spot-on-lawn bioactivity assay (zone of inhibition); type: cell-based; details: 10 μL spotted on lawn of 10^6 cells of S. Montevideo strain 29N, 24 hour incubation
E. coli ATCC 25853 = details: E. coli ATCC 25853
Salmonella Newport #17 = details: Salmonella Newport #17
[9] = test system: Enterobacter sakazakii E784; details: Enterobacter sakazakii E784
[10] = test system: Klebsiella pneumoniae SBJ-9149; details: Klebsiella pneumoniae SBJ-9149 (clinical isolate)
[11] = test system: Enterobacter cloacae SBJ-7612; details: Enterobacter cloacae SBJ-7612 (clinical isolate)
[12] = test system: Klebsiella pneumoniae SBJ-9483; details: Klebsiella pneumoniae SBJ-9483 (clinical isolate)
[13] = test system: Klebsiella pneumoniae SBJ-9388; details: Klebsiella pneumoniae SBJ-9388 (clinical isolate)
[14] = test system: Enterobacter cloacae SBJ-9222; details: Enterobacter cloacae SBJ-9222 (clinical isolate)
P. aeruginosa ATCC-27853 = details: P. aeruginosa ATCC-27853

CN[C@H](CC(C)C)C(=O)N[C@H]1C(=O)N[C@@H](CC(N)=O)C(=O)N[C@H]2C(=O)N[C@H]3C(=O)N[C@H](C(=O)N[C@H](C(=O)O)c4cc(O)cc(O)c4-c4cc3ccc4O)[C@H](O)c3ccc(c(Cl)c3)Oc3cc2cc(c3O[C@@H]2O[C@H](CO)[C@@H](O)[C@H](O)[C@H]2O[C@H]2C[C@](C)(N)[C@H](O)[C@H](C)O2)Oc2ccc(cc2Cl)[C@H]1O [Vancomycin, vancomycin, reference compound]
MIC (S. aureus 10; S. aureus 10 (MRSA, clinical isolate)): 1 µg/mL (≈ 0.69 µM) | MIC (S. aureus 10; Staphylococcus aureus, MRSA): 1 µg/mL (≈ 0.69 µM) | MIC (S. aureus 12; S. aureus 12 (MRSA, clinical isolate)): 1 µg/mL (≈ 0.69 µM) | MIC (S. aureus 12; Staphylococcus aureus, MRSA): 1 µg/mL (≈ 0.69 µM) | MIC (S. aureus 14; S. aureus 14 (MRSA, clinical isolate)): 1 µg/mL (≈ 0.69 µM) | MIC (S. aureus 14; Staphylococcus aureus, MRSA): 1 µg/mL (≈ 0.69 µM) | MIC (S. aureus 19; S. aureus 19 (MRSA, clinical isolate)): 1 µg/mL (≈ 0.69 µM) | MIC (S. aureus 19; Staphylococcus aureus, MRSA): 1 µg/mL (≈ 0.69 µM) | MIC (S. aureus 2; S. aureus 2 (MRSA, clinical isolate)): 1 µg/mL (≈ 0.69 µM) | MIC (S. aureus 2; Staphylococcus aureus, MRSA): 1 µg/mL (≈ 0.69 µM) | MIC (S. aureus 4; S. aureus 4 (MRSA, clinical isolate)): 1 µg/mL (≈ 0.69 µM) | MIC (S. aureus 4; Staphylococcus aureus, MRSA): 1 µg/mL (≈ 0.69 µM) | MIC (S. aureus 6; S. aureus 6 (MRSA, clinical isolate)): 1 µg/mL (≈ 0.69 µM) | MIC (S. aureus 6; Staphylococcus aureus, MRSA): 1 µg/mL (≈ 0.69 µM) | MIC (S. aureus 8; S. aureus 8 (MRSA, clinical isolate)): 1 µg/mL (≈ 0.69 µM) | MIC (S. aureus 8; Staphylococcus aureus, MRSA): 1 µg/mL (≈ 0.69 µM) | MIC (E. faecium ATCC 2320): ≥ 256 µg/mL | MIC (E. faecium ATCC 700221): ≥ 256 µg/mL | MIC (E. faecium BAA-2318): ≥ 256 µg/mL | MIC (E. faecalis ATCC 51575): ≥ 256 µg/mL | MIC (E. faecalis BAA-2365): ≥ 256 µg/mL | MIC (E. faecalis ATCC 29212): 2 µg/mL (≈ 1.38 µM) | MIC [1]: 1 µg/mL (≈ 0.69 µM) | MIC (S. aureus ATCC25923): 1 µg/mL (≈ 0.69 µM) | MIC (S. aureus ATCC 29213): 1 µg/mL (≈ 0.69 µM)

Polymyxin B [reference compound]
MIC ([2]; Enterobacter cloacae SBJ-9395): >128 µg/mL | MIC ([2]; Enterobacter cloacae SBJ-9395 (CRE, clinical isolate)): >128 µg/mL | MIC [3]: ≥256 µg/mL | MIC [4]: ≥256 µg/mL | MIC [5]: ≥256 µg/mL | MIC ([6]; Serratia marcescens SBJ-8283): >128 µg/mL | MIC ([6]; Serratia marcescens SBJ-8283 (CRE, clinical isolate)): >128 µg/mL | MIC ([7]; Serratia marcescens SBJ-9047): >128 µg/mL | MIC ([7]; Serratia marcescens SBJ-9047 (CRE, clinical isolate)): >128 µg/mL | minimum inhibitory concentration to show clear ZI [8]: 4 µg/mL | MIC (E. coli ATCC 25853): 0.5 µg/mL | MIC (Salmonella Newport #17): 1 µg/mL | MIC [9]: 0.5 µg/mL | MIC (E. coli O157: H7 EDL933): 0.5 µg/mL | MIC [10]: 0.5 µg/mL | MIC [11]: 1 µg/mL | MIC [12]: 0.5 µg/mL | MIC [13]: 0.5 µg/mL | MIC [14]: 1 µg/mL | MIC (P. aeruginosa ATCC-27853): 1 µg/mL
